Key:
rabbit platelets [1] = assay: In vitro rabbit platelet aggregation induced by ADP, collagen, AA or A 23187 Ca ionophor; format: cell-based
From the text: We compared on rabbit platelets the in vitro antiaggregatory effect , of acetylsalicylic acid (ASA), salicylic acid (SA). Pentoxifylline (Pentox or Trental), Nospa, Papaverine and Depogen. The aggregation of the rabbit platelets was induced by adenosine diphosphate (ADP), arachidonic acid (AA), Collagen and A 23187 Ca ionophor.

platelet aggregation = assay: Ex vivo platelet aggregation after administration; format: in vivo, rabbits
thrombus formation = assay: In vivo thrombus formation on cotton thread in arterio-venous plastic vessel shunt; set-up: species or system anaesthetised rabbits
Method: We investigated furthermore the in vivo antithrombotic effect of Depogen on anaesthetised rabbits. Depogen was administered intravenously in a dose range of 2.5-7.5 mg/kg. The vena yugularis was connected with the arteria carotis with the help of a plastic vessel. In the plastic vessel a cotton thread was placed, which served as inductor. The amount of thrombus sticked to the surface of the cotton was weighed in the case of the treated and untreated animals (after Herrmann R.G. et al., Proc. Soc. Exp. Biol. Med. 139, 548-552, 1972.)

rabbit platelets [2] = assay: Inhibition of PAF induced platelet aggregation; format: cell-based; settings: aggregation induced by 1 µM of PAF
[3] = system: acified ethanol- and indomethacine- induced ulceration; assay: Acidified ethanol- and indomethacin-induced ulceration; format: in vivo; settings: rat, in the antiaggregatory dose
From the text: The active ingredients according to the present invention, first of all Depogen, have further advantages compared with the widespreadly used ASA. ASA has significant gastrointestinal adverse effects, such as peptic ulcer, gastric haemorrhage. Depogen has no such adverse effect, and what is more, it has a weak ulcus-preventing activity. According to the measurements, in the antiaggregatory dose it exerts a 25-50 % inhibition on the acified ethanol- and indomethacine- induced ulceration in rat.

[4] = system: prostacyclin release from the aorta; assay: In vitro prostacyclin (PGI2) release from the aorta; format: cell-based; settings: in vitro (Figure 6)
From the text: From the point of view of PGI2 release Depogen represents a considerable […] compared to Pentoxifylline, as the ratio of the doses inhibiting platelet aggregation and increasing PGI2 release is lower for Depogen than for Pentoxifylline (Table 6) and thus the effective dose ranges of the two actions are closer to each other in the case of Depogen.

rabbit platelets [5] = assay: Inhibition of PAF induced serotonine release in platelets; format: cell-based; settings: release induced by 5 x 10⁻⁸ M of PAF
[6] = system: thromboxane and prostacyclin level of the blood plasma; assay: Thromboxane and prostacyclin level of the blood plasma after 4 days per os administration; format: in vivo; settings: rat, determined on the 5th day
Method: We investigated the effect of Depogen on the thromboxane and prostacyclin level of the blood plasma, in rat, after 4 days of per os administration in doses of 5 mg/kg and 10 mg/kg. On the 5th day we determined the thromboxane and prostacyclin level of the blood plasma (Table 7).

[7] = Oryctolagus cuniculus, Platelet, aggregation induced by A-23187 Ca ionophor, in vitro, read-out: IC50 rabbit platelet aggregation, A-23187
[8] = Oryctolagus cuniculus, Platelet, aggregation induced by ADP, in vitro, read-out: IC50 rabbit platelet aggregation, ADP
[9] = Oryctolagus cuniculus, Platelet, aggregation induced by Collagen, in vitro, read-out: IC50 rabbit platelet aggregation, Collagen
[10] = Oryctolagus cuniculus, Platelet, aggregation induced by arachidonic acid (AA), in vitro, read-out: IC50 rabbit platelet aggregation, AA
[11] = Oryctolagus cuniculus, Platelet
[12] = Table 5, unit inferred, aggregation induced by A 23187, read-out: Antiaggregatory Effect A 23187
[13] = Table 5, unit inferred, aggregation induced by AA, read-out: Antiaggregatory Effect AA
[14] = Table 5, unit inferred, aggregation induced by ADP, read-out: Antiaggregatory Effect ADP
[15] = Table 5, unit inferred, aggregation induced by Collagen, read-out: Antiaggregatory Effect Collagen
[16] = aggregation induced by A-23187 Ca ionophor, in vitro, read-out: IC50 rabbit platelet aggregation, A-23187
[17] = aggregation induced by ADP, in vitro, read-out: IC50 rabbit platelet aggregation, ADP
[18] = aggregation induced by Collagen, in vitro, read-out: IC50 rabbit platelet aggregation, Collagen
[19] = aggregation induced by arachidonic acid (AA), in vitro, read-out: IC50 rabbit platelet aggregation, AA
[20] = p.o. 10 mg/kg/day during 4 days
[21] = Oryctolagus cuniculus, Platelet, read-out: IC50 rabbit platelet aggregation, A-23187
[22] = Oryctolagus cuniculus, Platelet, read-out: IC50 rabbit platelet aggregation, AA
[23] = Oryctolagus cuniculus, Platelet, read-out: IC50 rabbit platelet aggregation, ADP
[24] = Oryctolagus cuniculus, Platelet, read-out: IC50 rabbit platelet aggregation, Collagen

SMILES	IC50 (rabbit platelets [1]; [7])	IC50 (rabbit platelets [1]; [8])	IC50 (rabbit platelets [1]; [9])	IC50 (rabbit platelets [1]; [10])	IC50 (rabbit platelets [2]; [11])	IC50 (rabbit platelets [1]; [12])	IC50 (rabbit platelets [1]; [13])	IC50 (rabbit platelets [1]; [14])	IC50 (rabbit platelets [1]; [15])	IC50 (rabbit platelets [1]; [16])	IC50 (rabbit platelets [1]; [17])	IC50 (rabbit platelets [1]; [18])	IC50 (rabbit platelets [1]; [19])	IC50 (rabbit platelets [5]; [11])	IC50 (rabbit platelets [1]; [21])	IC50 (rabbit platelets [1]; [22])	IC50 (rabbit platelets [1]; [23])	IC50 (rabbit platelets [1]; [24])	further results
CC(=O)Oc1ccccc1C(=O)O [ASA, acetylsalicylic acid, reference compound]	2440 µM	4050 µM	2610 µM	780 µM	–	–	–	–	–	–	–	–	–	–	–	–	–	–	–
CCOc1ccc(CC2=NCCc3cc(OCC)c(OCC)cc32)cc1OCC [Depogen, (3′,4′-diethoxy-benzyl)-6,7-diethoxy-3,4-dihydroisoquinolinium theophyllin-7-acetate]	–	–	–	–	684 µM	228 µM	240 µM	247 µM	140 µM	230 µM	247 µM	140 µM	240 µM	118 µM	–	–	–	–	inhibition at 2.5 mg/kg (platelet aggregation; Oryctolagus cuniculus, Platelet, iv, dose 2.5 mg/kg intravenously, read-out: Inhibitory Effect % ex vivo aggregation): 30 ± 4%; inhibition at 5 mg/kg (platelet aggregation; Oryctolagus cuniculus, Platelet, iv, dose 5.0 mg/kg intravenously, read-out: Inhibitory Effect % ex vivo aggregation): 45 ± 5%; inhibition at 7.5 mg/kg (platelet aggregation; Oryctolagus cuniculus, Platelet, iv, dose 7.5 mg/kg intravenously, read-out: Inhibitory Effect % ex vivo aggregation): 55 ± 6%; antiaggregatory effect in ex vivo experiments (platelet aggregation; after oral and intravenous administration (Figures 3 and 4)): significant antiaggregatory effect; Inhibitory Effect % in vivo thrombus formation (thrombus formation; dose 2.5 mg/kg intravenously): 25± 3%; Inhibitory Effect % in vivo thrombus formation (thrombus formation; dose 5.0 mg/kg intravenously): 45± 5%; Inhibitory Effect % in vivo thrombus formation (thrombus formation; dose 7.5 mg/kg intravenously): 60± 7%; inhibition on the acified ethanol- and indomethacine- induced ulceration [3]: 25-50%; prostacyclin release from the aorta [4]: significantly enhances; antiaggregatory effect, times stronger than that of ASA (rabbit platelets [1]; compared with ASA, in vitro): 10-20 times; PGI2 ([6]; p.o. 5 mg/kg/day during 4 days): 206.4± 11.2 pg/ml of plasma; PGI2/TxA2 ([6]; p.o. 5 mg/kg/day during 4 days): 4.2; TxA2 ([6]; p.o. 5 mg/kg/day during 4 days): 48.7± 3.9 pg/ml of plasma; PGI2 [6, 20]: 363.8± 19.3 pg/ml of plasma; PGI2/TxA2 [6, 20]: 11; TxA2 [6, 20]: 33.7± 3.6 pg/ml of plasma
CCOc1ccc(CC2=NCCc3cc(OCC)c(OCC)cc32)cc1OCC [Nospa, 1-(3-,4′-diethoxybenzyl)-6,7-diethoxy-3,4-dihydro-iso-quinoline]	–	–	–	–	–	840 µM	810 µM	740 µM	580 µM	840 µM	740 µM	580 µM	810 µM	–	–	–	–	–	IC50 (rabbit platelets [2]): 756 µM; IC50 (rabbit platelets [5]): 96 µM
COc1ccc(Cc2nccc3cc(OC)c(OC)cc23)cc1OC [Papaverine, 1-(3′,4′-dimethoxy-benzyl)-6,7-dimethoxy-isoquinoline]	–	–	–	–	656 µM	–	–	–	–	–	–	–	–	48.2 µM	1060 µM	130 µM	190 µM	270 µM	IC50 (rabbit platelets [1]; Oryctolagus cuniculus, Platelet, read-out: Antiaggregatory Effect A 23187): 1060 µM; IC50 (rabbit platelets [1]; Oryctolagus cuniculus, Platelet, read-out: Antiaggregatory Effect AA): 130 µM; IC50 (rabbit platelets [1]; Oryctolagus cuniculus, Platelet, read-out: Antiaggregatory Effect ADP): 190 µM; IC50 (rabbit platelets [1]; Oryctolagus cuniculus, Platelet, read-out: Antiaggregatory Effect Collagen): 270 µM
CC(=O)CCCCn1c(=O)c2c(ncn2C)n(C)c1=O [Pentoxifylline, reference compound]	2770 µM	2660 µM	2050 µM	1870 µM	1000 µM	–	–	–	–	–	–	–	–	800 µM	–	–	–	–	IC50 (rabbit platelets [1]; Oryctolagus cuniculus, Platelet, Table 5, unit inferred, aggregation induced by AA, read-out: Antiaggregatory Effect AA): 1870 µM; IC50 (rabbit platelets [1]; Oryctolagus cuniculus, Platelet, Table 5, unit inferred, aggregation induced by ADP, read-out: Antiaggregatory Effect ADP): 2660 µM; IC50 (rabbit platelets [1]; Oryctolagus cuniculus, Platelet, Table 5, unit inferred, aggregation induced by Collagen, read-out: Antiaggregatory Effect Collagen): 2050 µM
O=C(O)c1ccccc1O [Salicylic acid, salicylic acid, reference compound]	–	–	–	–	–	–	–	–	–	–	–	–	–	–	2610 µM	1010 µM	1380 µM	1300 µM	–

— patent publication EP0513997A1, “Antithrombotic compositions” (CHINOIN Gyogyszer és Vegyészeti Termékek Gyára RT., priority 1991, dated 1992)
